We go through 25 substances from US8354522B2, “Immunostimulatory oligoribonucleotides” (Coley Pharmaceutical GmbH, priority 2005, dated 2013).

Read-outs that look alike come from different tables or passages of the source.

The test system of the series is Human PBMC. In words: Cytokine production upon human PBMC stimulation (ORN complexed to DOTAP, 16 h, ELISA). More on the design: key to IFN-alpha / TNF-alpha: +: cytokine production; −: no cytokine production. To be noted: for IFN-alpha / TNF-alpha: human PBMC stimulated for 16 h, supernatant ELISA; for EC50 / IFN-alpha max activity / TNF-alpha max activity: ORN complexed to DOTAP, 16 h; for EC50: full titration 2 μM to 0.9 nM; for IFN-alpha max activity / TNF-alpha max activity: mean max activity at 0.6 μM, 3-6 blood donors. The format is cell-based. The procedure: Human peripheral blood mononuclear cells (PBMCs) were isolated from healthy donors, plated, and stimulated in vitro with various test and control immunostimulatory agents for 16 hours. After 16 hours, the supernatants were collected and then analyzed by ELISA assay. N-U-R1-R2,-Containing Oligoribonucleotides were tested complexed to DOTAP and with full titration curves (7 concentrations), starting from 2 μM ORN complexed to 25 μg/ml DOTAP and with 1/3 dilution steps. Also included were certain negative controls, including medium alone and DOTAP (25 μg/ml culture well; “Liposomes”) alone. The control immunostimulatory agents included the imidazoquinoline R-848 (2 μM with 1/3 dilution steps and 7 concentrations) the reported ligand for TLR7, ORN having TLR8 motifs such as AU and AUU sequences (SEQ ID NO:13-SEQ ID NO:15) ORN having TLR7/8 motifs such as CU, GU and GUU sequences (SEQ ID NO:19-SEQ ID NO:23).
Human PBMC were stimulated with ORN complexed to DOTAP. After 16 hours supernatants were harvested and TNF-alpha and IFN-alpha levels were measured. Mean/Max activities at 0.6 μM of 3-6 blood donors and two individual experiments were determined. […] TLR8 and TLR7/8 ORN are divided by a red line.
Human PBMC were stimulated with ORN complexed to DOTAP. After 16 hours supernatants were harvested and IFN-alpha levels were measured. Mean/Max activities at 0.6 μM and EC50 of full titration curves (range: 2 μM to 0.9 nM) of 3-6 blood donors and two individual experiments were determined. […] Low EC50/high Max activity represents TLR7/8 ORN (FIG. 5a) whereas high EC50 and low Max activity represents TLR8 ORN (FIG. 5b).
The ORN sequences listed in Table 1 were tested for IFN-alpha and TNF-alpha production upon human PBMC stimulation. Human PBMC were stimulated for 16 h with the indicated ORN, and supernatants were harvested and cytokine production measured by ELISA. Table 2 summarizes the min/max activity and EC50 of ORN for IFN-alpha and TNF-alpha production.

Where [1] appears, read: human PBMC, read-out: IFN-alpha EC50.
The mark [2] stands for this setting: human PBMC, read-out: TNF-alpha EC50.

Regarding “G*U*A*G*U*A*G*U*A*G*U*A*G*U*A*G*U*A*G*U (GUAGUAGUAGUAGUAGUAGU; listed as RNA, chemistry not fully specified) [SEQ ID NO: 25]”, the IFN-alpha result was “+” and the TNF-alpha entry was “+”.
The term EC50 denotes the concentration needed to bring the measured effect to its halfway point. In the case of “C*C*G*A*G*C*C*G*C*A*A*U*U*C*C*C [SEQ ID NO: 50] (CCGAGCCGCAAUUCCC; listed as RNA, chemistry not fully specified)”, the EC50 under setting [1] was 562 nM. The EC50 under setting [2] was 564 nM. Also, for the setting “human PBMC”, the IFN-alpha max activity came to 2614 pg/mL and the TNF-alpha max activity worked out at 11141 pg/mL.
“C*C*G*A*G*C*C*G*A*U*U*U*T*A*C*C (CCGAGCCGAUUUNACC; Oligoribonucleotide, chemistry of T and the '*' linkage is not given here, further chemistry not given here) [SEQ ID NO: 72]”: the EC50 is, setting by setting: under setting [1], 75 nM; under setting [2], 146 nM. For the setting “human PBMC”, this substance returned an IFN-alpha max activity of 1896 pg/mL. Under “human PBMC”, this substance registered a TNF-alpha max activity of 38811 pg/mL.
For “G*U*G*U*G*U*G*U*G*U*G*U*G*U*G*U*G*U*G*U (GUGUGUGUGUGUGUGUGUGU; listed as RNA, chemistry not fully specified) [SEQ ID NO: 20]”, the IFN-alpha result was “+” and the TNF-alpha entry is recorded as “+”.
As to “U*U*U*U*A*U*U*U*U*A*U*U*U*U*A*U*U*U*U*A (UUUUAUUUUAUUUUAUUUUA; chemistry not fully specified) [SEQ ID NO: 15]”, the IFN-alpha result was “+” and the TNF-alpha entry is reported as “+”. The “IFN-alpha production upon PBMC stimulation (in words)” value (human PBMC) is given as “induced IFN-alpha production”.
As for “C*C*G*A*G*C*C*G*C*C*U*A*C*C*C*C (CCGAGCCGCCUACCCC; listed as RNA, chemistry not fully specified) [SEQ ID NO: 47]”, the concentration giving a half-maximal response (EC50) under setting [1] was not below 1500 nM. Moreover, under setting [2], the EC50 was found to be 566 nM. Further, for the setting “human PBMC”, the IFN-alpha max activity was found to be 271.9 pg/mL and the TNF-alpha max activity is 14265 pg/mL.
Regarding “C*C*G*A*G*C*C*G*A*T*U*U*C*A*C*C [SEQ ID NO: 78] (CCGAGCCGANUUCACC; Oligoribonucleotide, chemistry of T and the '*' linkage is not given here, further chemistry not given here)”, under setting [1], the EC50 stood at 6 nM. Under setting [2], the concentration for a half-maximal effect (EC50) came to 241 nM. Where the note is “human PBMC”, this substance displayed an IFN-alpha max activity of 1609 pg/mL and a TNF-alpha max activity of 20126 pg/mL.
Taken in the same sequence, the figures for “C*C*G*A*G*C*C*G*A*A*G*G*U*A*C*C (CCGAGCCGAAGGUACC; listed as RNA, chemistry not fully specified) [SEQ ID NO: 82]” were more than 2000 nM, 219 nM, 204 pg/mL and 12595 pg/mL.
For “C*C*G*A*G*C*C*G*A*C*U*U*U*A*C*C (CCGAGCCGACUUUACC; listed as RNA, chemistry not fully specified) [SEQ ID NO: 57]”, the concentration for a half-maximal effect (EC50) was 77 nM under setting [1] and 213 nM under setting [2]. The substance also yielded an IFN-alpha max activity (human PBMC) of 1499 pg/mL. This substance registered a TNF-alpha max activity (human PBMC) of 33624 pg/mL.
Take “C*C*G*A*G*C*C*G*A*A*U*A*A*C*C*C (CCGAGCCGAAUAACCC; listed as RNA, chemistry not fully specified) [SEQ ID NO: 40]”: the EC50 under setting [1] was not below 1500 nM. Further, the EC50 under setting [2] was 352 nM. Where the note is “human PBMC”, this substance displayed an IFN-alpha max activity of 235.3 pg/mL and a TNF-alpha max activity of 18083 pg/mL.
On to “C*C*G*A*G*C*C*G*A*A*U*A*C*C*C*C (CCGAGCCGAAUACCCC; listed as RNA, chemistry not fully specified) [SEQ ID NO: 42]”, for which the 50% effective concentration (EC50) under setting [1] was not below 1500 nM. In addition, the EC50 under setting [2] is 395 nM. Also, for the setting “human PBMC”, the IFN-alpha max activity came out at 392.4 pg/mL and the TNF-alpha max activity was 17418 pg/mL.
With “dN*dN*dN*dN*dN*N*A*U*A*U*N*N*dN*dN*dN*dN*dN*dN [SEQ ID NO: 7]”, the IFN-alpha result is reported as “−” and the TNF-alpha result is “+”.
On to “C*C*G*A*G*C*C*G*C*A*U*A*A*C*C*C (CCGAGCCGCAUAACCC; listed as RNA, chemistry not fully specified) [SEQ ID NO: 41]”, for which the EC50 under setting [1] was more than 2000 nM. Moreover, the half-maximal effective concentration (EC50) under setting [2] was found to be 897 nM. Where the note is “human PBMC”, the IFN-alpha max activity amounted to 97.97 pg/mL and the TNF-alpha max activity was 10756 pg/mL.
Regarding “A*U*A*G*G*C*A*C (AUAGGCAC; phosphorothioate linkages, chemistry not fully specified) [SEQ ID NO: 4]”, the IFN-alpha result is listed as “−” and the TNF-alpha result is “+”.
For “C*C*G*A*G*C*C*G*C*U*A*U*U*C*C*C (CCGAGCCGCUAUUCCC; listed as RNA, chemistry not fully specified) [SEQ ID NO: 51]”, the concentration for a half-maximal effect (EC50) under setting [1] amounted to 582 nM. Moreover, the EC50 under setting [2] is 125 nM. Where the note is “human PBMC”, this substance came in with an IFN-alpha max activity of 2615 pg/mL and a TNF-alpha max activity of 23325 pg/mL.
On to “A*A*A*A*U*A*A*A*A*U*A*A*A*A*U*A*A*A*A*U (AAAAUAAAAUAAAAUAAAAU; listed as RNA, chemistry not fully specified) [SEQ ID NO: 18]”, for which the IFN-alpha result was “−” and the TNF-alpha result is reported as “+”.
As to “C*C*G*A*G*C*C*G*A*G*U*U*C*A*C*C [SEQ ID NO: 77] (CCGAGCCGAGUUCACC; listed as RNA, chemistry not fully specified)”, the EC50 under setting [1] was found to be 151 nM. Also, the half-maximal effective concentration (EC50) under setting [2] stood at 257 nM. In addition, for the setting “human PBMC”, the IFN-alpha max activity is 2519 pg/mL and the TNF-alpha max activity was determined as 21820 pg/mL.
On to “C*C*G*A*G*C*C*G*A*U*C*U*C*A*C*C (CCGAGCCGAUCUCACC; listed as RNA, chemistry not fully specified) [SEQ ID NO: 69]”, for which the EC50 under setting [1] was 619 nM. Further, under setting [2], the EC50 worked out at 313 nM. Where the note is “human PBMC”, the IFN-alpha max activity was 1031 pg/mL and the TNF-alpha max activity amounted to 26915 pg/mL.
The like results for “C*C*G*A*G*C*C*G*A*C*U*G*U*A*C*C (CCGAGCCGACUGUACC; listed as RNA, chemistry not fully specified) [SEQ ID NO: 61]” were, in that order, 736 nM, 141 nM, 587.7 pg/mL and 42180 pg/mL.
Taken in the same sequence, the figures for “C*C*G*A*G*C*C*G*A*U*G*U*U*A*C*C (CCGAGCCGAUGUUACC; listed as RNA, chemistry not fully specified) [SEQ ID NO: 66]” were 558 nM, 51 nM, 1616 pg/mL and 43098 pg/mL.
Turning to “C*U*A*C*U*A*C*U*A*C*U*A*C*U*A*C*U*A*C*U (CUACUACUACUACUACUACU; listed as RNA, chemistry not fully specified) [SEQ ID NO: 24]”, the IFN-alpha result was “−” and the TNF-alpha result is on record as “+”. Further, where the note is “human PBMC”, the “IFN-alpha production upon PBMC stimulation (in words)” value is given as “no IFN-alpha production” and the “TNF-alpha production upon PBMC stimulation (in words)” value was “TNF-alpha inducing”.
Consider “C*C*G*A*G*C*C*G*A*U*T*U*T*A*C*C (CCGAGCCGAUTUTACC; Oligoribonucleotide, chemistry of T and the '*' linkage is not given here, further chemistry not given here) [SEQ ID NO: 70]”, for which the concentration giving a half-maximal response (EC50) under setting [1] was 132 nM. Moreover, under setting [2], the EC50 was 150 nM. Under “human PBMC”, this substance came in with an IFN-alpha max activity of 1702 pg/mL and a TNF-alpha max activity of 44904 pg/mL.
Turning to “G*U*C*G*U*C*G*U*C*G*U*C*G*U*C*G*U*C*G*U (GUCGUCGUCGUCGUCGUCGU; listed as RNA, chemistry not fully specified) [SEQ ID NO: 26]”, the IFN-alpha result is listed as “+” and the TNF-alpha result is reported as “+”.
Take “C*C*G*A*G*C*C*G*A*A*U*G*U*A*C*C (CCGAGCCGAAUGUACC; listed as RNA, chemistry not fully specified) [SEQ ID NO: 63]”: the half-maximal effective concentration (EC50) under setting [1] turned out to be 1840 nM. The 50% effective concentration (EC50) under setting [2] was 309 nM. For the setting “human PBMC”, this substance returned an IFN-alpha max activity of 177.3 pg/mL and a TNF-alpha max activity of 34219 pg/mL.
Regarding “U*U*U*G*U*U*U*G*U*U*U*G*U*U*U*G*U*U*U*G (UUUGUUUGUUUGUUUGUUUG; listed as RNA, chemistry not fully specified) [SEQ ID NO: 22]”, the IFN-alpha entry is reported as “+” and the TNF-alpha result is on record as “+”.
